Target: T1, KCNT1 (KNa1.1, Slack) (Homo sapiens, UniProt Q5JUK3)
T1 construct: expressed in transfected cells; host or cells: HEK-TREX (tetracycline-inducible HEK cell line)
T1 sequence (Q5JUK3 1-1230): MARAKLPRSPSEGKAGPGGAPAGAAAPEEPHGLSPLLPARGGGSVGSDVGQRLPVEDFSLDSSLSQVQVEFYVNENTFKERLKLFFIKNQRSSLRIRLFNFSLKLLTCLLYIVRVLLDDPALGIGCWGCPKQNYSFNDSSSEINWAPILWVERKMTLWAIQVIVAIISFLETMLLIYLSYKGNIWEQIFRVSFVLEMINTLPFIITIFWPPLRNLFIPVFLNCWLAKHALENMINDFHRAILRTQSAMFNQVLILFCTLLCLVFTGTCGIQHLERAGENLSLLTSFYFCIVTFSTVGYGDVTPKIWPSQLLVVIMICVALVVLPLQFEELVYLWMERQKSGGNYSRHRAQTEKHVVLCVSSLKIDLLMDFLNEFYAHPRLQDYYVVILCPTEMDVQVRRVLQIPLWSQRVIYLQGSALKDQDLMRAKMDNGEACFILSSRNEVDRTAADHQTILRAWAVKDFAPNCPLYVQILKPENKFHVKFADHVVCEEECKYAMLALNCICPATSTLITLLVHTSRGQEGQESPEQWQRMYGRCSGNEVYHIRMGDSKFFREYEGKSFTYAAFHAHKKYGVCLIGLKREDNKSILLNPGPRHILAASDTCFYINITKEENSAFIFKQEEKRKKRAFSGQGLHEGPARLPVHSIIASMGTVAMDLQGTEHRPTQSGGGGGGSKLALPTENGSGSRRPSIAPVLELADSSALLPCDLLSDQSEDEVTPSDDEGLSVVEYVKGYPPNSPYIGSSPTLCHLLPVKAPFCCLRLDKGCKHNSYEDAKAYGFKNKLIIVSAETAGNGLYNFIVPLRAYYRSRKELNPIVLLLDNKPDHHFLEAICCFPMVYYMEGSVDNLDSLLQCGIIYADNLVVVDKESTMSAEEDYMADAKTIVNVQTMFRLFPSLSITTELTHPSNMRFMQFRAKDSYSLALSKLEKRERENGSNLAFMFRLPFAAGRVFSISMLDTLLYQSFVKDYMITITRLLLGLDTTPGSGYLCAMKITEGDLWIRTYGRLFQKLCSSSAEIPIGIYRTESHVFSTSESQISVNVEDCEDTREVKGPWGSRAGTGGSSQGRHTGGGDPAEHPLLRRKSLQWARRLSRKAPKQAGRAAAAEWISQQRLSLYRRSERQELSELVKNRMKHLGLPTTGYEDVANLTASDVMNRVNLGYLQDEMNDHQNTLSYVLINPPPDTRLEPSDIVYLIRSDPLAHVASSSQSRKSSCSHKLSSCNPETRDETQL
Experiment: KCNT1 patch clamp assay (SyncroPatch 384PE, HEK-TREX inducible cell line)
Format: cell-based
Settings: wild-type KCNT1, HEK-TREX cells, automated perforated patch clamp, step to 0 mV, room temperature; read-out: KCNT1-WT IC50
Procedure: Inhibition of KCNT1 (KNa1.1, Slack) was evaluated using a tetracycline inducible cell line (HEK-TREX). Currents were recorded using the SyncroPatch 384PE automated, patch clamp system. Pulse generation and data collection were performed with PatchController384 V1.3.0 and DataController384 V1.2.1 (Nanion Technologies). The access resistance and apparent membrane capacitance were estimated using built-in protocols. Current were recorded in perforated patch mode (10 μM escin) from a population of cells. The cells were lifted, triturated, and resuspended at 800,000 cells/ml. The cells were allowed to recover in the cell hotel prior to experimentation. Currents were recorded at room temperature. The external solution contained the following (in mM): NaCl 105, NMDG 40, KCl 4, MgCl2 1, CaCl2) 5 and HEPES 10 (pH=7.4, Osmolarity ˜300 mOsm). The extracellular solution was used as the wash, reference and compound delivery solution. The internal solution contained the following (in mM): NaCl 70, KF 70, KCl 10, EGTA 5, HEPES 5 and Escin 0.01 (pH=7.2, Osmolarity ˜295 mOsm). Escin is made at a 5 mM stock in water, aliquoted, and stored at −20° C. The compound plate was created at 2× concentrated in the extracellular solution. The compound was diluted to 1:2 when added to the recording well. The amount of DMSO in the extracellular solution was held constant at the level used for the highest tested concentration. A holding potential of −80 mV with a 100 ms step to 0 mV was used. Mean current was measured during the step to 0 mV. […] The average mean current from 3 sweeps was calculated and the % inhibition of each compound was calculated. The % Inhibition as a function of the compound concentration was fit with a Hill equation to derive IC50, slope, min and max parameters. If KCNT1 inhibition was less than 50% at the highest tested concentration or if an IC50 could not be calculated, then a percent inhibition was reported in place of the IC50.
In this table, “A” indicates IC50 of less than or equal to 1 μM; “B” indicates inhibition of between 1 μM to 20 μM; and “C” indicates inhibition of greater than or equal to 20 μM.

Row | Compound | IC50
1 | C[C@H](NC(=O)c1cc(C2CC2)nn1C)c1nc(-c2ccnc(C3CC3)c2)no1 [Compound 3, (S)-3-cyclopropyl-N-(1-(3-(2-cyclopropylpyridin-4-yl)-1,2,4-oxadiazol-5-yl)ethyl)-1-methyl-1H-pyrazole-5-carboxamide] | ≤ 1000 nM
2 | C[C@H](NC(=O)c1cc(C(C)(C)C)nn1C)c1nc(-c2ccnc(C3CC3)c2)no1 [Compound 4, (S)-3-(tert-butyl)-N-(1-(3-(2-cyclopropylpyridin-4-yl)-1,2,4-oxadiazol-5-yl)ethyl)-1-methyl-1H-pyrazole-5-carboxamide] | ≤ 1000 nM
3 | CCn1nccc1C(=O)N[C@@H](C)c1nc(-c2ccnc(C3CC3)c2)no1 [Compound 5, (S)—N-(1-(3-(2-cyclopropylpyridin-4-yl)-1,2,4-oxadiazol-5-yl)ethyl)-1-ethyl-1H-pyrazole-5-carboxamide] | ≤ 1000 nM
4 | CC(C)c1cc(C(=O)N[C@@H](C)c2nc(-c3ccnc(C4CC4)c3)no2)n(C)n1 [Compound 1, (S)—N-(1-(3-(2-cyclopropylpyridin-4-yl)-1,2,4-oxadiazol-5-yl)ethyl)-3-isopropyl-1-methyl-1H-pyrazole-5-carboxamide] | ≤ 1000 nM
5 | CC(C)n1nccc1C(=O)N[C@@H](C)c1nc(-c2ccnc(C3CC3)c2)no1 [Compound 2, (S)—N-(1-(3-(2-cyclopropylpyridin-4-yl)-1,2,4-oxadiazol-5-yl)ethyl)-1-isopropyl-1H-pyrazole-5-carboxamide] | ≤ 1000 nM

Results, then the compound that gave them:

Row | IC50 | Compound
6 | ≤ 1000 nM | C[C@H](NC(=O)c1ccnn1C(C)(C)C)c1nc(-c2ccnc(C3CC3)c2)no1 [Compound 6, (S)-1-(tert-butyl)-N-(1-(3-(2-cyclopropylpyridin-4-yl)-1,2,4-oxadiazol-5-yl)ethyl)-1H-pyrazole-5-carboxamide]
7 | 1000 to 20000 nM | C[C@H](NC(=O)c1ccnn1C1CCC1)c1nc(-c2ccnc(C3CCC3)c2)no1 [Compound 7, (S)-1-cyclobutyl-N-(1-(3-(2-cyclobutylpyridin-4-yl)-1,2,4-oxadiazol-5-yl)ethyl)-1H-pyrazole-5-carboxamide]
8 | ≤ 1000 nM | C[C@H](NC(=O)c1cc(C(F)F)nn1C)c1nc(-c2ccnc(C3CCC3)c2)no1 [Compound 8, (S)—N-(1-(3-(2-cyclobutylpyridin-4-yl)-1,2,4-oxadiazol-5-yl)ethyl)-3-(difluoromethyl)-1-methyl-1H-pyrazole-5-carboxamide]

Source: US11773088B2, “KCNT1 inhibitors and methods of use” (Praxis Precision Medicines, Inc., priority 2020, dated 2023)
